The values that follow come from patent US11345711B2, “8,9-dihydroimidazo[1,2-a]pyrimido[5,4-e]pyrimidin-5(6H)-ones” (IMPACT THERAPEUTICS (SHANGHAI), INC, priority 2016, dated 2022).

Read-outs that look alike come from different tables or passages of the source.

The test system of one data set is advanced solid tumors. The note with it: cited from earlier work.
A further data set has as its system LoVo cells. The data set can be described thus: MTT based cell viability assay on LoVo cells. The note with it: Homo sapiens, LoVo, 72 h, 3 d, read-out: IC50, growth inhibition of LoVo cells. The method in brief: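 Inhibition of LoVo proliferation was derived as IC50 from a sigmoidal dose-response fit of cell survival. Readout was MTT (0.5 mg/mL, 4 h) with absorbance at 552/630/690 nm, after 3-day treatment at 37 °C. Eight-point series from 10 μM to 0.01 μM, DMSO control, 1% DMSO final.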

The target in another data set is Wee1 (h) (Homo sapiens, UniProt P30291). The data set can be described thus: Wee1 kinase (h) detection method, [γ-33P]-ATP filter assay. The format is biochemical.
Chain of Wee1 (h) (P30291 whole entry): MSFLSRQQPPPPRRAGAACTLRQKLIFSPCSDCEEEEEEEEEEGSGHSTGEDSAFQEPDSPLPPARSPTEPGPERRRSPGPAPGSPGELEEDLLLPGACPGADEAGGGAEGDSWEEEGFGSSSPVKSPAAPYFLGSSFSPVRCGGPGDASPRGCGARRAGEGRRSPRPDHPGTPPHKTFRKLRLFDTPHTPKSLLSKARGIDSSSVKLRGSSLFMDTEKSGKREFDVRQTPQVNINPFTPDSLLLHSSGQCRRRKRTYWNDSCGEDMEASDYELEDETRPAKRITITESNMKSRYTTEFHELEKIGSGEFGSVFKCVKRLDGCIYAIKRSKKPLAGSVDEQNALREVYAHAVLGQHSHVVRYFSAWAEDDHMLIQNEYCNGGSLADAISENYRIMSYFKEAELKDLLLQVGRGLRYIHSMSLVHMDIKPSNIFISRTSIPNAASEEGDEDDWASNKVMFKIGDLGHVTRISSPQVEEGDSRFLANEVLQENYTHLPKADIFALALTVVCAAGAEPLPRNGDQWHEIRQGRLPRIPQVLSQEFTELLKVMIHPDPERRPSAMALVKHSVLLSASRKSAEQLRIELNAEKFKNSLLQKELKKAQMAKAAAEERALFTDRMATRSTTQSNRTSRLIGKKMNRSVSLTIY
Another data set deals with NCI-H1299 cells. The data set can be described thus: MTT based cell viability assay on NCI-H1299 cells. The note with it: Homo sapiens, read-out: IC50, growth inhibition of NCI-H1299 cells. The method, boiled down:
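Viability read-out was MTT reduction (0.5 mg/mL, 4 h, absorbance 552/630/690 nm) after 3-day compound exposure at 37 °C of NCI-H1299 cells seeded at 1000 per well. Dilutions spanned 10 μM–0.01 μM in DMSO, final DMSO 1‰. Survival-versus-concentration curves were fitted sigmoidally to give IC50.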

The mark [1] stands for this setting: AZD1775 alone or in combination with gemcitabine, cisplatin or carboplatin, 176 evaluable patients.

As for `C=CCn1c(=O)c2cnc(Nc3ccc(N4CCN(C)CC4)cc3)nc2n1-c1cccc(C(C)(C)O)n1` [AZD1775], the partial response in the data set with advanced solid tumors (setting [1]) is recorded as 10%. In addition, the “stable disease as the best response” value with advanced solid tumors (setting [1]) is recorded as 53%. The response rate in the data set with advanced solid tumors (TP53 wild-type patients (n=33)) was 12%; in the data set with advanced solid tumors (patients with TP53 mutation (n=19)), 21%. Besides, the safety and tolerability result with advanced solid tumors (alone or in combination with chemotherapy, at a certain dose) was “safe and tolerable”. Further, the IC50 with LoVo cells turned out to be 0.389 µM; with NCI-H1299 cells (NCI-H1299, NCI-H1299 cells), 0.287 µM. For the same compound, on Wee1 (h) (C 10 μm compound), the “Inh. (%) of Wee1 kinase enzyme activity” value amounted to 97%.

Consider `Cc1cc(Nc2ncc3c(n2)N2CCN=C2N(c2c(C)cccc2F)C3=O)cc(C)c1N1CCN(C)CC1` [Example 169, 6-(2-Fluoro-6-methylphenyl)-2-((3,5-dimethyl-4-(4-methylpiperazin-1-yl)phenyl)amino)-8,9-dihydroimidazo[1,2-a]pyrimido[5,4-e]pyrimidin-5(6H)-one], for which the IC50 in the data set with LoVo cells came to 0.165 µM; in the data set with NCI-H1299 cells (NCI-H1299, NCI-H1299 cells), 0.274 µM. Moreover, the “Inh. (%) of Wee1 kinase enzyme activity” value at Wee1 (h) (C 0.01 μm compound) is 16%; at Wee1 (h) (C 0.1 μm compound) it was 73%; on Wee1 (h) (C 1 μm compound) it was 93%.

Turning to `Cc1cccc(Cl)c1N1C(=O)c2cnc(Nc3ccc(N4CCN(C)CC4)c(Cl)c3)nc2N2CCN=C21` [Example 171, 6-(2-Chloro-6-methylphenyl)-2-((3-chloro-4-(4-methylpiperazin-1-yl)phenyl)amino)-8,9-dihydroimidazo[1,2-a]pyrimido[5,4-e]pyrimidin-5(6H)-one], the IC50 in the data set with LoVo cells stood at 0.228 µM; with NCI-H1299 cells (NCI-H1299, NCI-H1299 cells), 0.442 µM. In addition, the entries for the “Inh. (%) of Wee1 kinase enzyme activity” value at Wee1 (h) (C 0.01 μm compound), on Wee1 (h) (C 0.1 μm compound) and on Wee1 (h) (C 1 μm compound) were 16%, 59% and 95%, respectively.

Turning to `Cc1cccc(Cl)c1N1C(=O)c2cnc(Nc3cc(Cl)c(N4CCN(C)CC4)c(Cl)c3)nc2N2CCN=C21` [Example 172, 6-(2-Chloro-6-methylphenyl)-2-((3,5-dichloro-4-(4-methylpiperazin-1-yl)phenyl)amino)-8,9-dihydroimidazo[1,2-a]pyrimido[5,4-e]pyrimidin-5(6H)-one], the IC50 was 0.117 µM with LoVo cells and 0.362 µM with NCI-H1299 cells (NCI-H1299, NCI-H1299 cells). Besides, the “Inh. (%) of Wee1 kinase enzyme activity” value on Wee1 (h) (C 0.01 μm compound) was found to be 12%; on Wee1 (h) (C 0.1 μm compound), 60%; on Wee1 (h) (C 1 μm compound), 91%.

In the case of `Cc1cc(Nc2ncc3c(n2)N2CCN=C2N(c2c(C)cccc2Cl)C3=O)cc(Cl)c1N1CCN(C)CC1` [Example 173, 6-(2-Chloro-6-methylphenyl)-2-((3-chloro-5-methyl-4-(4-methylpiperazin-1-yl)phenyl)amino)-8,9-dihydroimidazo[1,2-a]pyrimido[5,4-e]pyrimidin-5(6H)-one], the IC50 was 0.0992 µM in the data set on LoVo cells and 0.226 µM with NCI-H1299 cells (NCI-H1299, NCI-H1299 cells). The “Inh. (%) of Wee1 kinase enzyme activity” value at Wee1 (h) (C 0.01 μm compound) worked out at 26%; at Wee1 (h) (C 0.1 μm compound), 71%; on Wee1 (h) (C 1 μm compound) it was 94%.

Take `Cc1cc(Nc2ncc3c(n2)N2CCN=C2N(c2c(C)cccc2Cl)C3=O)cc(C)c1N1CCN(C)CC1` [Example 174, 6-(2-Chloro-6-methylphenyl)-2-((3,5-dimethyl-4-(4-methylpiperazin-1-yl)phenyl)amino)-8,9-dihydroimidazo[1,2-a]pyrimido[5,4-e]pyrimidin-5(6H)-one]: the IC50 in the data set on LoVo cells came to 0.136 µM; with NCI-H1299 cells (NCI-H1299, NCI-H1299 cells), 0.152 µM. Besides, the results for the “Inh. (%) of Wee1 kinase enzyme activity” value at Wee1 (h) (C 0.01 μm compound), at Wee1 (h) (C 0.1 μm compound) and at Wee1 (h) (C 1 μm compound) were 30%, 83% and 94%, respectively.

Regarding `O=C1c2cnc(Nc3ccc(N4CCNCC4)cc3)nc2N2CCN=C2N1c1c(Cl)cccc1Cl` [Example 175, 6-(2,6-Dichlorophenyl)-2-((4-(piperazin-1-yl)phenyl)amino)-8,9-dihydroimidazo[1,2-a]pyrimido[5,4-e]pyrimidin-5(6H)-one], the results for the IC50 in the data set on LoVo cells and in the data set on NCI-H1299 cells (NCI-H1299 cells) were 0.192 µM and 0.269 µM, respectively. In addition, the “Inh. (%) of Wee1 kinase enzyme activity” value at Wee1 (h) (C 1 μm compound) turned out to be 95%.

For the compound `O=C1c2cnc(Nc3ccc(N4CCNCC4)c(Cl)c3)nc2N2CCN=C2N1c1c(Cl)cccc1Cl` [Example 176, 6-(2,6-Dichlorophenyl)-2-((3-chloro-4-(piperazin-1-yl)phenyl)amino)-8,9-dihydroimidazo[1,2-a]pyrimido[5,4-e]pyrimidin-5(6H)-one], the half-maximal inhibitory concentration (IC50) in the data set on LoVo cells was determined as 0.0736 µM; with NCI-H1299 cells (NCI-H1299 cells) it was 0.126 µM. At Wee1 (h) (C 1 μm compound), the “Inh. (%) of Wee1 kinase enzyme activity” value is listed as 96%.

In the case of `COc1cc(Nc2ncc3c(n2)N2CCN=C2N(c2c(Cl)cccc2Cl)C3=O)ccc1N1CCNCC1` [Example 178, 6-(2,6-Dichlorophenyl)-2-((3-methoxy-4-(piperazin-1-yl)phenyl)amino)-8,9-dihydroimidazo[1,2-a]pyrimido[5,4-e]pyrimidin-5(6H)-one], the IC50 amounted to 0.281 µM in the data set on LoVo cells and 0.36 µM in the data set on NCI-H1299 cells (NCI-H1299 cells). Further, the “Inh. (%) of Wee1 kinase enzyme activity” value at Wee1 (h) (C 1 μm compound) is on record as 94%.

Regarding `O=C1c2cnc(Nc3ccc(N4CCNCC4)c(CO)c3)nc2N2CCN=C2N1c1c(F)cccc1Cl` [Example 179, 6-(2-Chloro-6-fluorophenyl)-2-((3-(hydroxymethyl)-4-(piperazin-1-yl)phenyl)amino)-8,9-dihydroimidazo[1,2-a]pyrimido[5,4-e]pyrimidin-5(6H)-one], the IC50 with LoVo cells was found to be 2.86 µM; in the data set on NCI-H1299 cells (NCI-H1299 cells), 70.6 µM. In addition, the “Inh. (%) of Wee1 kinase enzyme activity” value on Wee1 (h) (C 1 μm compound) came out at 95%.

Turning to `O=C1c2cnc(Nc3ccc(N4CCNCC4)c(CO)c3)nc2N2CCN=C2N1c1c(Cl)cccc1Cl` [Example 180, 6-(2,6-Dichlorophenyl)-2-((3-(hydroxymethyl)-4-(piperazin-1-yl)phenyl)amino)-8,9-dihydroimidazo[1,2-a]pyrimido[5,4-e]pyrimidin-5(6H)-one], the IC50 in the data set with LoVo cells stood at 2.38 µM; in the data set with NCI-H1299 cells (NCI-H1299 cells) it was 2.05 µM. The “Inh. (%) of Wee1 kinase enzyme activity” value at Wee1 (h) (C 1 μm compound) was found to be 96%.

On to `CN1CCN(c2ccc(Nc3ncc4c(n3)N3CCN=C3N(c3c(Cl)cccc3Cl)C4=O)cc2CO)CC1` [Example 181, 6-(2,6-Dichlorophenyl)-2-((3-(hydroxymethyl)-4-(4-methylpiperazin-1-yl)phenyl)amino)-8,9-dihydroimidazo[1,2-a]pyrimido[5,4-e]pyrimidin-5(6H)-one], for which the results for the IC50 with LoVo cells and in the data set with NCI-H1299 cells (NCI-H1299 cells) were 0.142 µM and 0.187 µM, respectively. At Wee1 (h) (C 1 μm compound), the “Inh. (%) of Wee1 kinase enzyme activity” value is 96%.

Turning to `O=C1c2cnc(Nc3ccc(N4CCN(CCO)CC4)cc3)nc2N2CCN=C2N1c1c(Cl)cccc1Cl` [Example 182, 6-(2,6-Dichlorophenyl)-2-((4-(4-(2-hydroxyethyl)piperazin-1-yl)phenyl)amino)-8,9-dihydroimidazo[1,2-a]pyrimido[5,4-e]pyrimidin-5(6H)-one], the half-inhibitory concentration (IC50) is 0.243 µM in the data set on LoVo cells and 0.503 µM in the data set with NCI-H1299 cells (NCI-H1299 cells). Besides, the “Inh. (%) of Wee1 kinase enzyme activity” value on Wee1 (h) (C 1 μm compound) was 94%.

With `O=C1c2cnc(Nc3ccc(N4CCOCC4)cc3)nc2N2CCN=C2N1c1c(Cl)cccc1Cl` [Example 183, 6-(2,6-Dichlorophenyl)-2-((4-morpholinophenyl)amino)-8,9-dihydroimidazo[1,2-a]pyrimido[5,4-e]pyrimidin-5(6H)-one], the half-inhibitory concentration (IC50) was found to be 0.775 µM in the data set on LoVo cells and 1.04 µM with NCI-H1299 cells (NCI-H1299 cells). The “Inh. (%) of Wee1 kinase enzyme activity” value at Wee1 (h) (C 1 μm compound) is 95%.
